Assay results reported in patent US20100119587A1, “SOLID LIPIDIC […] AS PHARMACEUTICALLY ACCEPTABLE FILLERS OR […] FOR INHALATION” (UNIVERSITE LIBRE DE BRUXELLES, priority 2004, published 2010).
Values after ≈ are worked out from the molar mass of the structure shown.

Columns and labels:
Type in all cases: physicochemical
[1] = In vitro deposition test, FPD/FPF by Multi-stage Liquid Impinger (tobramycin formulations); settings: Table 11, loaded dose = 15 mg, Cyclohaler 100 l/min 2.4 s, n = 3
Protocol: The Fine Particle Dose has been determined by the method described in the European Pharmacopoeia 4 for the aerodynamic assessment of fine particle, using Apparatus C—Multi-stage Liquid Impinger (MsLI) […] The flow rate was adjusted to a pressure drop of 4 kPa, as typical for inspiration by a patient, resulting in a flow rate of 100 l/min during 2.4 seconds. At least 3 FPD determinations were performed on each formulation and analysis were carried out by a suitable and validated analytical HPLC method. In order to increase the UV absorptivity of the molecule, a derivatization method was applied. The suitable and validated quantification method is described in the USP 25. The HPLC system consisted of a High Performance Liquid Chromatography system (HP 1100 series, Agilent technologies, Belgium), equipped with a quartenary pump, an autosampler and a variable wavelength UV detector set at 360 nm. The separation system was a 39 cm×3.9 mm stainless steel (5 μm particle size) reversed-phase C18 column (Alltima, Alltech, Belgium). Samples of 20 μl volume were injected. The mobile phase was prepared by dissolving 2 g of Tris(hydroxymethyl)aminomethane in 800 ml of water. […] The mass of test substance deposited on each stage was determined from the HPLC analysis of the recovered solutions. […] It is considered to be directly proportional to the amount of drug able to reach the pulmonary tract in vivo, and consequently, the higher the value FPD, the higher the estimated lung deposition.

[2] = Particle size distribution by laser diffraction (Mastersizer 2000, dry sampling)
Protocol: For each SLP composition, the particle size distribution is measured by laser diffractometry, using a dry sampling system with a suitable SOP (Standard Operating Procedure), (Scirocco®, Mastersizer 2000, Malvern, UK).
The size distributions are expressed in terms of the mass median diameter d(0.5), i.e. the size in microns which 50% of the sample is smaller and 50% is larger, and in terms of the volume (mass) mean diameter D[4,3].

[3] = Solubility in isopropanol; settings: organic solvent or mixture

## NC[C@H]1O[C@H](O[C@H]2[C@H](O)[C@@H](O[C@H]3O[C@H](CO)[C@@H](O)[C@H](N)[C@H]3O)[C@H](N)C[C@@H]2N)[C@H](N)C[C@@H]1O [Tobra μ, tobramycin]
[1]
  FPD: 7.2 ± 0.6 mg
  FPF: 48.1 ± 0.4%
[1]; listed as uncoated micronized tobramycin
  FPF: around 48%
[2]; Table 10, Example 13, dry powder form, mean ± S.D., n = 3
  d (0.5): 1.29 ± 0.02 μm
[2]; Table 10, Example 13, dry powder form, n = 3
  D [4, 3]: 1.54 ± 0.01 μm
[2]; Table 10, Example 13, n = 3
  % <5.0 μm: 99.3 ± 0.2%
[3]
  solubility: 50 µg/mL (≈ 107 µM)
